Experimental data taken from patent US12173002B2, “PRMT5 inhibitors and methods of use” (SHANGHAI APEIRON THERAPEUTICS COMPANY LIMITED, priority 2022, dated 2024).

How the values were obtained:
[1] = tested on: HCT-116 MTAP(−/−) deficient cells; assay: Inhibitory activity on proliferation of HCT-116 MTAP(−/−) deficient cells (Cell-Titer Glo, 8 days); assay type: cell-based; conditions: Homo sapiens, HCT-116, 192 h, 8 days incubation
Experimental: Test 1: Compound's inhibitory activity on proliferation of HCT-116 MTAP(−/−) deficient cells. P Materials and Cells: HCT-116 MTAP(−/−) deficient cells obtained from Kyinno Bio (China); RPMI-1640 medium, fetal bovine serum, and penicillin-streptomycin purchased from Thermo Fisher Scientific (America); 384-well plates from PerkinElmer (America); Cell-Titer Glo assay kit from Promega (America).
Cell Culture: HCT116 MTAP(−/−) deficient cells were cultured in RPMI 1640 medium containing 10% fetal bovine serum and 1% penicillin-streptomycin at 37° C., 5% CO2. Only cells in logarithmic growth phase were used for experiments.
(§1) Cell Proliferation Inhibition Assay: The compound's inhibitory activity on HCT-116 MTAP(−/−) deficient cells was assessed using the Cell-Titer Glo assay kit. Adjusting cell concentration, 40 μL was seeded into a 384-well plate and cultured overnight at 37° C., 5% CO2. Each well received 40 nL of the compound, achieving concentrations from 0 to 10,000 nM (starting concentration 10,000 nM, 3-fold dilution, 10 points), with 0.1% DMSO. The cell plate was incubated for 8 days at 37° C., 5% CO2. Cell-Titer Glo reagent (40 μL) was added to measure cell viability.

[2] = tested on: HCT-116 MTAP wild-type cells; assay: Inhibitory activity on proliferation of HCT-116 MTAP wild-type cells (Cell-Titer Glo, 8 days); assay type: cell-based; conditions: Homo sapiens, HCT-116, 192 h, 8 days incubation
Experimental: Test 2: Compound's inhibitory activity on proliferation of HCT-116 MTAP wild-type cells.
Materials and Cells: HCT-116 MTAP wild-type cells obtained from Kyinno Bio (China); RPMI-1640 medium, fetal bovine serum, and penicillin-streptomycin purchased from Thermo Fisher Scientific (America); 384-well plates from PerkinElmer (America); Cell-Titer Glo assay kit from Promega (America).
Cell Culture: HCT116 MTAP wild-type cells were cultured in RPMI 1640 medium containing 10% fetal bovine serum and 1% penicillin-streptomycin at 37° C., 5% CO2. Only cells in logarithmic growth phase were used for experiments.
as §1, with “MTAP wild-type” for “MTAP(−/−) deficient”

Row | SMILES | IC50 [1] [µM] | IC50 [2] [µM]
1 | Nc1nc2ccc(C(=O)N(C3CC3)[C@@H]3COc4cc(Br)ccc43)cc2n2cncc12 (single isomer, unassigned) [Example 82] | 0.0529 | 1.92
2 | Nc1nc2ccc(C(=O)N(C3CC3)[C@H]3COc4cc(C(F)(F)F)ccc43)cc2n2cncc12 (single isomer, unassigned) [Example 83] | 2.64 | 4.7
3 | Nc1nc2cnc(C(=O)N(C3CC3)[C@H]3COc4cc(C(F)(F)F)ccc43)cc2n2cncc12 (single isomer, unassigned) [Example 87] | 9.03 | 10.8
4 | Nc1nc2cnc(C(=O)N(C3CC3)[C@@H]3COc4cc(C(F)(F)F)ccc43)cc2n2cncc12 (single isomer, unassigned) [Example 88] | 0.0241 | 1.85
5 | CN(C(=O)c1ccc2nc(N)c3cncn3c2c1)[C@H]1COc2nc(C(F)(F)F)ccc21 (single isomer, unassigned) [Example 89] | > 3 | > 10
6 | CN(C(=O)c1ccc2nc(N)c3cncn3c2c1)[C@@H]1COc2nc(C(F)(F)F)ccc21 (single isomer, unassigned) [Example 90] | 0.0364 | > 10
7 | N#Cc1ccc2c(c1)OC[C@@H]2N(C(=O)c1ccc2nc(N)c3cncn3c2c1)C1CC1 (single isomer, unassigned) [Example 91] | 2.18 | > 20
8 | N#Cc1ccc2c(c1)OC[C@H]2N(C(=O)c1ccc2nc(N)c3cncn3c2c1)C1CC1 (single isomer, unassigned) [Example 92] | 0.0466 | 4.75
9 | CN(C(=O)c1ccc2nc(N)c3cncn3c2c1)[C@H]1COCc2ccc(C(F)(F)F)cc21 (single isomer, unassigned) [Example 93] | > 3 | > 10
10 | CN(C(=O)c1ccc2nc(N)c3cncn3c2c1)[C@@H]1COCc2ccc(C(F)(F)F)cc21 (single isomer, unassigned) [Example 94] | 0.0808 | 5.17
11 | CN(C(=O)c1ccc2nc(N)c3cncn3c2c1)[C@H]1COc2cc(S(F)(F)(F)(F)F)ccc21 (single isomer, unassigned) [Example 103] | 0.931 | 6.26
12 | CN(C(=O)c1ccc2nc(N)c3cncn3c2c1)C1COCc2ccc(C(F)(F)F)cc21 (centres unmarked) [Example 8, 4-amino-N-methyl-N-(6-(trifluoromethyl)isochroman-4-yl) imidazo[1,5-a] quinoxaline-8-carboxamide] | 0.106 | 6.48
13 | CN(C(=O)c1cc2c(cc1C#N)nc(N)c1cncn12)[C@@H]1COc2cc(C(F)(F)F)ccc21 [Example 14, (S)-4-amino-7-cyano-N-methyl-N-(6-(trifluoromethyl)-2,3-dihydrobenzofuran-3-yl)imidazo[1,5-a] quinoxaline-8-carboxamide] | 0.0147 | 1.28
14 | CN(C(=O)c1cc2c(cc1Cl)nc(N)c1cncn12)[C@@H]1COc2cc(C(F)(F)F)ccc21 [Example 27, (S)-4-amino-7-chloro-N-methyl-N-(6-(trifluoromethyl)-2,3-dihydrobenzofuran-3-yl)imidazo[1,5-a]quinoxaline-8-carboxamide] | 0.0044 | 0.842
15 | CN(C(=O)c1cc2c(cc1F)nc(N)c1cncn12)[C@@H]1COc2cc(-c3cnn(C)c3)ccc21 [Example 34, (S)-4-amino-7-fluoro-N-methyl-N-(6-(1-methyl-1H-pyrazol-4-yl)-2,3-dihydrobenzofuran-3-yl)imidazo[1,5-a] quinoxaline-8-carboxamide] | 0.0296 | 6.57
16 | CN(C(=O)c1cc2c(cc1F)nc(N)c1cncn12)[C@@H]1COc2cc(S(C)(=O)=O)ccc21 [Example 38, (S)-4-amino-7-fluoro-N-methyl-N-(6-(methylsulfonyl)-2,3-dihydrobenzofuran-3-yl)imidazo[1,5-a] quinoxaline-8-carboxamide] | 0.03 | 4.06
17 | CN(C(=O)c1ccc2nc(N)c3cncn3c2c1)C1CSc2cc(C(F)(F)F)ccc21 (centres unmarked) [Example 43, 4-amino-N-methyl-N-(6-(trifluoromethyl)-2,3-dihydrobenzo[b]thiophen-3-yl)imidazo [1,5-a]quinoxaline-8-carboxamide] | 0.0224 | 2.99
18 | CN(C(=O)c1ccc2nc(N)c3cncn3c2c1)C1CCOCc2cc(C(F)(F)F)ccc21 (centres unmarked) [Example 44, 4-amino-N-methyl-N-(8-(trifluoromethyl)-1,3,4,5-tetrahydrobenzo[c]oxepin-5-yl) imidazo[1,5-a] quinoxaline-8-carboxamide] | 0.31 | > 10
19 | CN(C(=O)c1ccc2nc(N)c3cncn3c2c1)[C@@H]1COc2cc(Cl)ccc21 [Example 70, (S)-4-amino-N-(6-chloro-2,3-dihydrobenzofuran-3-yl)-N-methylimidazo[1,5-a]quinoxaline-8-carboxamide] | 0.054 | 3.89
20 | Cc1ncc(-c2ccc3c(c2)OCC3N(C(=O)c2ccc3nc(N)c4cncn4c3c2)C2CC2)cn1 (centres unmarked) [Example 72, 4-amino-N-cyclopropyl-N-(6-(2-methylpyrimidin-5-yl)-2,3-dihydrobenzofuran-3-yl)imidazo[1,5-a]quinoxaline-8-carboxamide] | 0.117 | > 20
21 | Nc1nc2ccc(C(=O)N(C3CC3)C3COc4cc(Br)ccc43)cc2n2cncc12 (centres unmarked) [Example 74, 4-amino-N-(6-bromo-2,3-dihydrobenzofuran-3-yl)-N-cyclopro-pylimidazo[1,5-a] quinoxaline-8-carboxamide] | 0.148 | 5.99
22 | [2H]c1ncc2c(N)nc3ccc(C(=O)N(C)[C@@H]4COc5cc(C(F)(F)F)ccc54)cc3n12 [Example 78, (S)-4-amino-N-methyl-N-(6-(trifluoromethyl)-2,3-dihydrobenzofuran-3-yl)imidazo[1,5-a]quinoxaline-8-carboxamide-1-d] | 0.0071 | 2.07
23 | [2H]c1ncn2c1c(N)nc1ccc(C(=O)N(C)[C@@H]3COc4cc(C(F)(F)F)ccc43)cc12 [Example 79, (S)-4-amino-N-methyl-N-(6-(trifluoromethyl)-2,3-dihydrobenzo-furan-3-yl)imidazo [1,5-a]quinoxaline-8-carboxamide-3-d] | 0.0056 | 1.3
24 | Nc1nc2ccc(C(=O)N(C3CC3)[C@H]3COc4cc(Br)ccc43)cc2n2cncc12 [Example 81, (R)-4-amino-N-(6-bromo-2,3-dihydrobenzofuran-3-yl)-N-cyclopropylimidazo[1,5-a]quinoxaline-8-carboxamide] | 1.79 | 2.36
25 | C[C@@H]1OC[C@@H](N(C)C(=O)c2ccc3nc(N)c4cncn4c3c2)c2ccc(C(F)(F)F)cc21 [Example 105, 4-amino-N-methyl-N-((1S,4S)-1-methyl-7-(trifluoromethyl)isoch-roman-4-yl)imidazo [1,5-a]quinoxaline-8-carboxamide] | 0.0661 | 2.19
26 | CN(C(=O)c1cc2c(cc1F)nc(N)c1cncn12)[C@@H]1CCOc2cc(-c3cnn(C(F)(F)F)c3)ccc21 [Example 113, (R)-4-amino-7-fluoro-N-methyl-N-(7-(1-(trifluoromethyl)-1H-pyrazol-4-yl)chroman-4-yl) imidazo[1,5-a] quinoxaline-8-carboxamide] | 0.0881 | > 10
27 | CN(C(=O)c1cc2c(cc1F)nc(N)c1cncn12)[C@H]1COc2cc(C(F)(F)F)ccc21 [Example 120, (R)-4-amino-7-fluoro-N-methyl-N-(6-(trifluoromethyl)-2,3-dihydrobenzofuran-3-yl)imidazo[1,5-a]quinoxaline-8-carboxamide] | 0.9 | > 10
28 | CN(C(=O)c1ccc2nc(N)c3cncn3c2c1)[C@@H]1CSc2cc(S(=O)(=O)C3CC3)ccc21 [Example 133, (S)-4-amino-N-(6-(cyclopropylsulfonyl)-2,3-dihydrobenzo[b]thiophen-3-yl)-N-methylimidazo[1,5-a] quinoxaline-8-carboxamide] | 0.0714 | > 10
